Measured values taken from ChEMBL document CHEMBL3885861, “Open TG-GATES”.
“And” between values parts separate entries of the source, which are not always exact repeats. Identical values can stand only once.

Species: Rattus norvegicus
Assay: Open TG-GATES - Regimen: Single
Assay type: toxicity, organism-based, Sprague-Dawley
Parameters: regimen Single, gender Male, age 6 weeks
Settings: in vivo, po, route gavage; for LIVER: tissue Liver; for ALP / ALT / AST / BUN / CRE / Ca / Cl / GLC / IP / K / LDH / Na / PL / RALB / TC / TP / gamma-GTP / DBIL / TBIL: tissue Plasma; for APTT / Bas / Eos / Fbg / Hb / Ht / Lym / MCH / MCHC / MCV / Mono / Neu / PT / Plat / RBC / Ret / WBC: tissue Blood; for KIDNEY_L / KIDNEY_R / KIDNEY_TOTAL: tissue Kidney
[1] = 0 mg/kg, 24 h, dose level Control

Q: What does the source list for `O=P1(N(CCCl)CCCl)NCCCO1` (stereo unspecified) [CYCLOPHOSPHAMIDE ANHYDROUS]?
A: LIVER [1]: 9.8 g and 8.7 g; ALP [1]: 1816 IU/L and 1543.8 IU/L; ALT [1]: 45.6 IU/L and 38 IU/L; AST [1]: 71.2 IU/L and 71.6 IU/L; BUN [1]: 16.4 mg/dL and 13.6 mg/dL; CRE [1]: 0.2 mg/dL; Ca [1]: 10.7 mg/dL and 11.1 mg/dL; Cl [1]: 104.8 meq/L and 105.8 meq/L; GLC [1]: 189.6 mg/dL and 178.8 mg/dL; IP [1]: 7.3 mg/dL and 7.8 mg/dL; K [1]: 4.4 meq/L; LDH [1]: 192.2 IU/L and 79 IU/L; Na [1]: 142.6 meq/L and 141 meq/L; PL [1]: 161.6 mg/dL and 160.8 mg/dL; RALB [1]: 2.9 g/dL and 2.6 g/dL; TC [1]: 82 mg/dL and 82.6 mg/dL; TP [1]: 5.4 g/dL and 5.6 g/dL; gamma-GTP [1]: 1.2 IU/L; TERMINAL_BW (2 mg/kg, 3 h, dose level Low): 191.9 g; APTT (2 mg/kg, 3 h, dose level Low): 22.6 s; Bas (2 mg/kg, 3 h, dose level Low): 0%; Eos (2 mg/kg, 3 h, dose level Low): 0.4%; Fbg (2 mg/kg, 3 h, dose level Low): 284.6 mg/dL; Hb (2 mg/kg, 3 h, dose level Low): 13.1 g/dL; Ht (2 mg/kg, 3 h, dose level Low): 39.2%; Lym (2 mg/kg, 3 h, dose level Low): 85.4%; MCH (2 mg/kg, 3 h, dose level Low): 21.8 pg; MCHC (2 mg/kg, 3 h, dose level Low): 33.3%; MCV (2 mg/kg, 3 h, dose level Low): 65.4 fL; Mono (2 mg/kg, 3 h, dose level Low): 1.4%; Neu (2 mg/kg, 3 h, dose level Low): 12.4%; PT (2 mg/kg, 3 h, dose level Low): 15.9 s; Plat (2 mg/kg, 3 h, dose level Low): 119.4 x10_4/uL; RBC (2 mg/kg, 3 h, dose level Low): 600.4 x10_4/ul; Ret (2 mg/kg, 3 h, dose level Low): 8.8%; WBC (2 mg/kg, 3 h, dose level Low): 81 x10_2/uL; KIDNEY_L (2 mg/kg, 3 h, dose level Low): 0.9 g; KIDNEY_R (2 mg/kg, 3 h, dose level Low): 0.9 g; KIDNEY_TOTAL (2 mg/kg, 3 h, dose level Low): 1.8 g; LIVER (2 mg/kg, 3 h, dose level Low): 9 g; ALP (2 mg/kg, 3 h, dose level Low): 1623.4 IU/L; ALT (2 mg/kg, 3 h, dose level Low): 42.2 IU/L; AST (2 mg/kg, 3 h, dose level Low): 73.4 IU/L; BUN (2 mg/kg, 3 h, dose level Low): 12.4 mg/dL; CRE (2 mg/kg, 3 h, dose level Low): 0.1 mg/dL; Ca (2 mg/kg, 3 h, dose level Low): 10.8 mg/dL; Cl (2 mg/kg, 3 h, dose level Low): 107.2 meq/L; DBIL (2 mg/kg, 3 h, dose level Low): 0 mg/dL; GLC (2 mg/kg, 3 h, dose level Low): 190 mg/dL; IP (2 mg/kg, 3 h, dose level Low): 7.9 mg/dL; K (2 mg/kg, 3 h, dose level Low): 4.1 meq/L; LDH (2 mg/kg, 3 h, dose level Low): 181.4 IU/L; Na (2 mg/kg, 3 h, dose level Low): 144 meq/L; PL (2 mg/kg, 3 h, dose level Low): 119.2 mg/dL; RALB (2 mg/kg, 3 h, dose level Low): 2.9 g/dL; TBIL (2 mg/kg, 3 h, dose level Low): 0.022 mg/dL; TC (2 mg/kg, 3 h, dose level Low): 64.4 mg/dL; TP (2 mg/kg, 3 h, dose level Low): 5.2 g/dL; gamma-GTP (2 mg/kg, 3 h, dose level Low): 1 IU/L; TERMINAL_BW (2 mg/kg, 6 h, dose level Low): 187.4 g; APTT (2 mg/kg, 6 h, dose level Low): 21.7 s; Bas (2 mg/kg, 6 h, dose level Low): 0%; Eos (2 mg/kg, 6 h, dose level Low): 0.8%; Fbg (2 mg/kg, 6 h, dose level Low): 301.4 mg/dL; Hb (2 mg/kg, 6 h, dose level Low): 13.1 g/dL; Ht (2 mg/kg, 6 h, dose level Low): 39.4%; Lym (2 mg/kg, 6 h, dose level Low): 76.2%; MCH (2 mg/kg, 6 h, dose level Low): 21.4 pg; MCHC (2 mg/kg, 6 h, dose level Low): 33.4%; MCV (2 mg/kg, 6 h, dose level Low): 64.2 fL; Mono (2 mg/kg, 6 h, dose level Low): 2.2%; Neu (2 mg/kg, 6 h, dose level Low): 20.2%; PT (2 mg/kg, 6 h, dose level Low): 16 s; Plat (2 mg/kg, 6 h, dose level Low): 121.6 x10_4/uL; RBC (2 mg/kg, 6 h, dose level Low): 613.6 x10_4/ul; Ret (2 mg/kg, 6 h, dose level Low): 8.5%; WBC (2 mg/kg, 6 h, dose level Low): 94.5 x10_2/uL; KIDNEY_L (2 mg/kg, 6 h, dose level Low): 0.9 g; KIDNEY_R (2 mg/kg, 6 h, dose level Low): 0.9 g; KIDNEY_TOTAL (2 mg/kg, 6 h, dose level Low): 1.7 g; LIVER (2 mg/kg, 6 h, dose level Low): 8 g; ALP (2 mg/kg, 6 h, dose level Low): 1350.2 IU/L; ALT (2 mg/kg, 6 h, dose level Low): 39.2 IU/L; AST (2 mg/kg, 6 h, dose level Low): 69.2 IU/L; BUN (2 mg/kg, 6 h, dose level Low): 10.2 mg/dL; CRE (2 mg/kg, 6 h, dose level Low): 0.1 mg/dL; Ca (2 mg/kg, 6 h, dose level Low): 10.6 mg/dL; Cl (2 mg/kg, 6 h, dose level Low): 106.8 meq/L; DBIL (2 mg/kg, 6 h, dose level Low): 0 mg/dL; GLC (2 mg/kg, 6 h, dose level Low): 184.8 mg/dL; IP (2 mg/kg, 6 h, dose level Low): 9.4 mg/dL; K (2 mg/kg, 6 h, dose level Low): 4.4 meq/L; LDH (2 mg/kg, 6 h, dose level Low): 195.2 IU/L; Na (2 mg/kg, 6 h, dose level Low): 142.8 meq/L; PL (2 mg/kg, 6 h, dose level Low): 136.8 mg/dL; RALB (2 mg/kg, 6 h, dose level Low): 2.9 g/dL; TBIL (2 mg/kg, 6 h, dose level Low): 0.032 mg/dL; TC (2 mg/kg, 6 h, dose level Low): 78.2 mg/dL; TP (2 mg/kg, 6 h, dose level Low): 5.3 g/dL; gamma-GTP (2 mg/kg, 6 h, dose level Low): 1.2 IU/L; TERMINAL_BW (2 mg/kg, 9 h, dose level Low): 193.9 g; APTT (2 mg/kg, 9 h, dose level Low): 20.9 s; Bas (2 mg/kg, 9 h, dose level Low): 0%; Eos (2 mg/kg, 9 h, dose level Low): 0.6%; Fbg (2 mg/kg, 9 h, dose level Low): 312.6 mg/dL; Hb (2 mg/kg, 9 h, dose level Low): 12.9 g/dL; Ht (2 mg/kg, 9 h, dose level Low): 38.9%; Lym (2 mg/kg, 9 h, dose level Low): 76.4%; MCH (2 mg/kg, 9 h, dose level Low): 21.2 pg; MCHC (2 mg/kg, 9 h, dose level Low): 33.1%; MCV (2 mg/kg, 9 h, dose level Low): 64.1 fL; Mono (2 mg/kg, 9 h, dose level Low): 1.6%; Neu (2 mg/kg, 9 h, dose level Low): 20.6%; PT (2 mg/kg, 9 h, dose level Low): 16.1 s; Plat (2 mg/kg, 9 h, dose level Low): 120.1 x10_4/uL; RBC (2 mg/kg, 9 h, dose level Low): 607.2 x10_4/ul; Ret (2 mg/kg, 9 h, dose level Low): 8.3%; WBC (2 mg/kg, 9 h, dose level Low): 83.5 x10_2/uL; KIDNEY_L (2 mg/kg, 9 h, dose level Low): 0.9 g; KIDNEY_R (2 mg/kg, 9 h, dose level Low): 0.9 g; KIDNEY_TOTAL (2 mg/kg, 9 h, dose level Low): 1.8 g; LIVER (2 mg/kg, 9 h, dose level Low): 8.3 g; ALP (2 mg/kg, 9 h, dose level Low): 1429.8 IU/L; ALT (2 mg/kg, 9 h, dose level Low): 36.4 IU/L; AST (2 mg/kg, 9 h, dose level Low): 69 IU/L; BUN (2 mg/kg, 9 h, dose level Low): 10.2 mg/dL; CRE (2 mg/kg, 9 h, dose level Low): 0.2 mg/dL; Ca (2 mg/kg, 9 h, dose level Low): 10.7 mg/dL; Cl (2 mg/kg, 9 h, dose level Low): 106.4 meq/L; DBIL (2 mg/kg, 9 h, dose level Low): 0 mg/dL; GLC (2 mg/kg, 9 h, dose level Low): 179.2 mg/dL; IP (2 mg/kg, 9 h, dose level Low): 10.1 mg/dL; K (2 mg/kg, 9 h, dose level Low): 4 meq/L; LDH (2 mg/kg, 9 h, dose level Low): 221 IU/L; Na (2 mg/kg, 9 h, dose level Low): 143.4 meq/L; PL (2 mg/kg, 9 h, dose level Low): 142.4 mg/dL; RALB (2 mg/kg, 9 h, dose level Low): 3.1 g/dL; TBIL (2 mg/kg, 9 h, dose level Low): 0.036 mg/dL; TC (2 mg/kg, 9 h, dose level Low): 81.2 mg/dL; TP (2 mg/kg, 9 h, dose level Low): 5.4 g/dL; gamma-GTP (2 mg/kg, 9 h, dose level Low): 1 IU/L
